Source: ChEMBL document CHEMBL4507302, “Data for DCP probe TP-020” (2021)
Calls of active or inactive are those of the source. The rule behind the calls is not given here.

What was measured:
[1] = target: Dual specificity protein kinase CLK3 (Homo sapiens) (UniProt P49761); settings: Compound concentration 1000.0 nM
[2] = target: Tyrosine-protein kinase Fer (Homo sapiens) (UniProt P16591); settings: Compound concentration 1000.0 nM
[3] = target: Tyrosine-protein kinase HCK (Homo sapiens) (UniProt P08631); settings: Compound concentration 1000.0 nM
[4] = target: Serine/threonine-protein kinase NLK (Homo sapiens) (UniProt Q9UBE8); settings: Compound concentration 1000.0 nM
[5] = target: Cyclin-dependent kinase 17 (Homo sapiens) (UniProt Q00537); settings: Compound concentration 1000.0 nM
[6] = target: Serine/threonine-protein kinase WNK1 (Homo sapiens) (UniProt Q9H4A3); settings: Compound concentration 1000.0 nM
[7] = target: 5-hydroxytryptamine receptor 1A (Homo sapiens) (UniProt P08908); settings: Compound concentration 10.0 uM
[8] = target: Histamine H3 receptor (Homo sapiens) (UniProt Q9Y5N1); settings: Compound concentration 10.0 uM
[9] = target: Beta-1 adrenergic receptor (Homo sapiens) (UniProt P08588); settings: Compound concentration 10.0 uM
[10] = target: Muscarinic acetylcholine receptor M1 (Homo sapiens) (UniProt P11229); settings: Compound concentration 10.0 uM
[11] = target: Muscarinic acetylcholine receptor M2 (Homo sapiens) (UniProt P08172); settings: Compound concentration 10.0 uM
[12] = target: Beta-3 adrenergic receptor (Homo sapiens) (UniProt P13945); settings: Compound concentration 10.0 uM
[13] = target: 5-hydroxytryptamine receptor 1D (Homo sapiens, UniProt P28221); assay: GPCRScan assay: inhibition of 5-HT1D; parameters: radioligand conc. used [nm] 1.0 – 2.0, parental cells HEKT
[14] = target: Sigma intracellular receptor 2 (Homo sapiens, UniProt Q5BJF2); assay: GPCRScan assay: inhibition of Sigma 2; parameters: radioligand conc. used [nm] 5.0, parental cells HEKT
[15] = target: Diacylglycerol O-acyltransferase 1 (Homo sapiens, UniProt O75907); assay: Thin Layer Chromatography (TLC) assay (human DGAT1)
[16] = target: Diacylglycerol O-acyltransferase 2 (Homo sapiens, UniProt Q96PD7); assay: Thin Layer Chromatography (TLC) assay (human DGAT2)
[17] = target: 5-hydroxytryptamine receptor 2C (Homo sapiens) (UniProt P28335); settings: Compound concentration 10.0 uM
[18] = target: 5-hydroxytryptamine receptor 6 (Homo sapiens) (UniProt P50406); settings: Compound concentration 10.0 uM
[19] = target: Alpha-1A adrenergic receptor (Homo sapiens) (UniProt P35348); settings: Compound concentration 10.0 uM
[20] = target: Alpha-2A adrenergic receptor (Homo sapiens) (UniProt P08913); settings: Compound concentration 10.0 uM
[21] = target: Alpha-2C adrenergic receptor (Homo sapiens) (UniProt P18825); settings: Compound concentration 10.0 uM
[22] = target: Muscarinic acetylcholine receptor M3 (Homo sapiens) (UniProt P20309); settings: Compound concentration 10.0 uM
[23] = target: Sigma non-opioid intracellular receptor 1 (Homo sapiens) (UniProt Q99720); settings: Compound concentration 10.0 uM
[24] = target: Diacylglycerol O-acyltransferase 2-like protein MOGAT2 (Homo sapiens) (UniProt Q3SYC2); assay: RapidFire/MS assay (human MGAT2)
Mogat2 (Mus musculus) = assay: RapidFire/MS assay (mouse MGAT2)

Cyclin-dependent kinase 17 (Homo sapiens), sequence (Q00537 whole entry, looked up): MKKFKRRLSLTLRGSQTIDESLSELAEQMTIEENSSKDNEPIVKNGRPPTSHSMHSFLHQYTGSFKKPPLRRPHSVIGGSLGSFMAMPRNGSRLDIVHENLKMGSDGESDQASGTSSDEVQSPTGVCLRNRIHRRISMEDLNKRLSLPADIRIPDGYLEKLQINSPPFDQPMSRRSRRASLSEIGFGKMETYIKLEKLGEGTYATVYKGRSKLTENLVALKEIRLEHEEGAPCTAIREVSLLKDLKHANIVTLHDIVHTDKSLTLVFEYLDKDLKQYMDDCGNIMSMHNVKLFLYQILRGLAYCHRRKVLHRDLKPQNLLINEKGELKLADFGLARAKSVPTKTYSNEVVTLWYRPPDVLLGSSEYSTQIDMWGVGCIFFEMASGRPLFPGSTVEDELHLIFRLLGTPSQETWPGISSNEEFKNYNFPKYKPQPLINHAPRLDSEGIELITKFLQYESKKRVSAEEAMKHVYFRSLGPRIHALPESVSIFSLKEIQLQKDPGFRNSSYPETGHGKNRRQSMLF
Serine/threonine-protein kinase NLK (Homo sapiens), sequence (Q9UBE8 whole entry): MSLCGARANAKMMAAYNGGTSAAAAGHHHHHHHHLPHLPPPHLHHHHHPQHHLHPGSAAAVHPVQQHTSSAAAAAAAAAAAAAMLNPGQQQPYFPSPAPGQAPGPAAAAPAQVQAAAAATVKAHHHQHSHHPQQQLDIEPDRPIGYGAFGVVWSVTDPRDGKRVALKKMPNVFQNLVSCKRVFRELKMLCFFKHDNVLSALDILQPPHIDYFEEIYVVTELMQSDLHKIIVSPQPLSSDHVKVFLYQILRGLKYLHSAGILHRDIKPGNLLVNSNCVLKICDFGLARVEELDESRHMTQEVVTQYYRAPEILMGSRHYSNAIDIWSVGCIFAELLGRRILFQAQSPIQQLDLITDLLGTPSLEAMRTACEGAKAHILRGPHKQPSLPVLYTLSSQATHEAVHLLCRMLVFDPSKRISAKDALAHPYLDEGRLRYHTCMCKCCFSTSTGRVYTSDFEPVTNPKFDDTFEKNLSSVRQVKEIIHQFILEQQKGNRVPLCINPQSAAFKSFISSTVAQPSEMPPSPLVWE
Serine/threonine-protein kinase WNK1 (Homo sapiens), sequence (Q9H4A3 whole entry, looked up): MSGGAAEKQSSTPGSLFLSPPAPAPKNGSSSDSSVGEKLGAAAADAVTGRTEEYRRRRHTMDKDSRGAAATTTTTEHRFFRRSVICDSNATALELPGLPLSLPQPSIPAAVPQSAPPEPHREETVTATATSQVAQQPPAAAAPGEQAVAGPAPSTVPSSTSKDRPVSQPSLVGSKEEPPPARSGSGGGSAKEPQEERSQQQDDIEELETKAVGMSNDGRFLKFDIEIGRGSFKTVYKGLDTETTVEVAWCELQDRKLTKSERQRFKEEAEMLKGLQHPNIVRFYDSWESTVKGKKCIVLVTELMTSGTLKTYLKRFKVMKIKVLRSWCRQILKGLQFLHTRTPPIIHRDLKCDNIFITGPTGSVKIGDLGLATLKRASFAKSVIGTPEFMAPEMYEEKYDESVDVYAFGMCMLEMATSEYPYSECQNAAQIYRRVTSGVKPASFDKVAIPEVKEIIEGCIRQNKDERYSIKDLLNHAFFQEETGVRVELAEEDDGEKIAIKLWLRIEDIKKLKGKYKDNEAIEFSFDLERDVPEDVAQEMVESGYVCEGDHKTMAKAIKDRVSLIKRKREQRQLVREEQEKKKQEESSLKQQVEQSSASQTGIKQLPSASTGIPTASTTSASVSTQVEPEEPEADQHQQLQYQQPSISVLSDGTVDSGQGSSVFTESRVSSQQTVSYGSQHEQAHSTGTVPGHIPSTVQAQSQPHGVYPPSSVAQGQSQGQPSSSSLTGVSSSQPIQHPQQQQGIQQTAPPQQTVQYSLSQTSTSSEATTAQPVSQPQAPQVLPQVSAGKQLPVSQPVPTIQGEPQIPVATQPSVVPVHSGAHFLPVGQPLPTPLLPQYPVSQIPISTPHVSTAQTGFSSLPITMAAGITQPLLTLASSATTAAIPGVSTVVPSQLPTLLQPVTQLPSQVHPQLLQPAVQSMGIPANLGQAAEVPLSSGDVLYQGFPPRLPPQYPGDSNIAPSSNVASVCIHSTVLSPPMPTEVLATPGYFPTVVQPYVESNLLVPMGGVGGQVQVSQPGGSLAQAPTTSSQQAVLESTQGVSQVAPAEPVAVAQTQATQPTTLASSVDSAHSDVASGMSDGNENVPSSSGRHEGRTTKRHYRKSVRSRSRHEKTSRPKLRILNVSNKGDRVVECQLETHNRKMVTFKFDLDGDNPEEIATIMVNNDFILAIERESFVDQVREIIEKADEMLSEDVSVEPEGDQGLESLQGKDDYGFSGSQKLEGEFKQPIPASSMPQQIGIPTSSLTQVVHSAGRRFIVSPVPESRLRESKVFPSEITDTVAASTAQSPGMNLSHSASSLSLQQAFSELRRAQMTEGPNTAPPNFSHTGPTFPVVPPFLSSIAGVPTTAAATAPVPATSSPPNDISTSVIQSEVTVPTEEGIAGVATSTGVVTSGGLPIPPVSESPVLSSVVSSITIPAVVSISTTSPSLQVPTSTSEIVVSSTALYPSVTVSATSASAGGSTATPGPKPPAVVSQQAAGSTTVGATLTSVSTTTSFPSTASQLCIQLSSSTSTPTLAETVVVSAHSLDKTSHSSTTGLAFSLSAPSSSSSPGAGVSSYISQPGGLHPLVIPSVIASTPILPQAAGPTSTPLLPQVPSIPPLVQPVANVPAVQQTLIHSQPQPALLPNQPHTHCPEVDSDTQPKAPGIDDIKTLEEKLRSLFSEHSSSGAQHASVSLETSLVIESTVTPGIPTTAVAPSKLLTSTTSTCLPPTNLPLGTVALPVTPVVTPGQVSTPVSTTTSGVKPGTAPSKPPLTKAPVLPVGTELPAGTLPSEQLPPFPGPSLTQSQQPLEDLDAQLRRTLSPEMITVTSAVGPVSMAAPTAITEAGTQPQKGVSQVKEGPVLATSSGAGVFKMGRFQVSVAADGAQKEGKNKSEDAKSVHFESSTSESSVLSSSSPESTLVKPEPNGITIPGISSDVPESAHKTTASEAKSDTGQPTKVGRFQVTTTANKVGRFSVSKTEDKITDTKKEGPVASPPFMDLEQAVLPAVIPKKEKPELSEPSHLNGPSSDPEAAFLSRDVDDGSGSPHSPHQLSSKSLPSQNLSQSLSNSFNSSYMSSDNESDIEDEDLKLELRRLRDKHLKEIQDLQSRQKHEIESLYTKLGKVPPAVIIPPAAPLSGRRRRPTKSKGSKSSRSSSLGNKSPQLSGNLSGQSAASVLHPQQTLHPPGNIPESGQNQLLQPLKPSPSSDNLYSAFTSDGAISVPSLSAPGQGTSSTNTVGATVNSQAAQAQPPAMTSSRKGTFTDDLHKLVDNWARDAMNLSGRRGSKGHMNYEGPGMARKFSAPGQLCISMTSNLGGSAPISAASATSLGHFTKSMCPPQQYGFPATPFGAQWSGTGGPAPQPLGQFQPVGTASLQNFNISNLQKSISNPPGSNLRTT
Histamine H3 receptor (Homo sapiens), sequence (Q9Y5N1 whole entry): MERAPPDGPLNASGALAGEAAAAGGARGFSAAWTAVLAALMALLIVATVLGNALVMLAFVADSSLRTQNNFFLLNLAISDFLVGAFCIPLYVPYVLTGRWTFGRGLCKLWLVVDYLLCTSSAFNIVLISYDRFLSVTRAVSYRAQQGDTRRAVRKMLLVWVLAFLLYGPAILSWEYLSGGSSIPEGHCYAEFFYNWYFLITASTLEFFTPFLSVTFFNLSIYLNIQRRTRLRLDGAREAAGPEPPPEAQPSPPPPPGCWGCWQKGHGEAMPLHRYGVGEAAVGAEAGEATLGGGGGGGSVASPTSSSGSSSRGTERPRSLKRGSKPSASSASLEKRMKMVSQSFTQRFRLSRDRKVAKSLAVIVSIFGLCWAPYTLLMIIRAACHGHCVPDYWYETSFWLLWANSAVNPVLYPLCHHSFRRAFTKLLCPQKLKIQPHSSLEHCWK
Tyrosine-protein kinase HCK (Homo sapiens), sequence (P08631 2-526 limits assumed): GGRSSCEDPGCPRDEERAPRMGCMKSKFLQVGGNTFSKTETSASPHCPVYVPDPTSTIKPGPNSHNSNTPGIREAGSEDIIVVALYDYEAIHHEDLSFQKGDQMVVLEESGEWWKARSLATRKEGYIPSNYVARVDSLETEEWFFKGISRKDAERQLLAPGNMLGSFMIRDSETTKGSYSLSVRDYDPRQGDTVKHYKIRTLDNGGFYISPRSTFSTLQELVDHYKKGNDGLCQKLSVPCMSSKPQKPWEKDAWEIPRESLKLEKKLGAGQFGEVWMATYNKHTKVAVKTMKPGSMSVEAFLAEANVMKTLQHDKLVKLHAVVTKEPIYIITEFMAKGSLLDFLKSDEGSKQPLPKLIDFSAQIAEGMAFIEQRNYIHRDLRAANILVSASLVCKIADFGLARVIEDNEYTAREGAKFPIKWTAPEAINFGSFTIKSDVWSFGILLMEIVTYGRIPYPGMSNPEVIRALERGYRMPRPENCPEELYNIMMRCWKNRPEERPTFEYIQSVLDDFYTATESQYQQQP
5-hydroxytryptamine receptor 1D, sequence (P28221 whole entry): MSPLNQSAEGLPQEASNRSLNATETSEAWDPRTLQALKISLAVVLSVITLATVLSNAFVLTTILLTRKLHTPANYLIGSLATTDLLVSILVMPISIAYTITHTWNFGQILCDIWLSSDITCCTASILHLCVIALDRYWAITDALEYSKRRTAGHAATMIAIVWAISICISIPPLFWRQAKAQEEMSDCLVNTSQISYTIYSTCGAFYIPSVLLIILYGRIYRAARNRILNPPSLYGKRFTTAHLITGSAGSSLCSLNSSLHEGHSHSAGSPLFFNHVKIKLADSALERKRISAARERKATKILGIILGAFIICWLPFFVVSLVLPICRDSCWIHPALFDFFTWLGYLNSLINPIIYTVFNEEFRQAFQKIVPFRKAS
Sigma intracellular receptor 2, sequence (Q5BJF2 whole entry): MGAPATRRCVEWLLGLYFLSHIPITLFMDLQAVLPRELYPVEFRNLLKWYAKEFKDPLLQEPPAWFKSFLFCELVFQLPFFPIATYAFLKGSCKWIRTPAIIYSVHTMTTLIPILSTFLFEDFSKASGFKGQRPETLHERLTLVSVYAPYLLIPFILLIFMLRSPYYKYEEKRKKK

With `Nc1cnc(N2CCc3cc(S(=O)(=O)Nc4c(F)cc(Cl)cc4F)cc(N4CCCC4=O)c32)nc1` the residual activity [1] was 74%, the residual activity [2] was 100% and the residual activity [3] was 100%. It also gave a residual activity [4] of 100%, a residual activity [5] of 100% and a residual activity [6] of 100%. It also gave an inhibition [7] of 4.45%, an inhibition [8] of -1.21% and an inhibition [9] of 8.84%. The inhibition [10] was -9.48%, the inhibition [11] was 3.7% and the inhibition [12] was -2.69%.

Work on `Cn1nc(C(F)(F)F)cc1-c1cnc(N2CCc3cc(S(=O)(=O)Nc4c(F)cc(Cl)cc4F)cc(N4CCCC4=O)c32)nc1` [TP-020] yielded a Ki ([13]; read-out: Ki) of 4.66 µM, a Ki ([13]; read-out: pKi (converted)) of 4.57 µM and a Ki [14] of 10 µM. For the same compound, the IC50 [15] was > 30 µM (not active), the IC50 [16] was > 30 µM (not active) and the residual activity [1] was 88%. It also gave a residual activity [2] of 100%, a residual activity [3] of 95% and a residual activity [4] of 98%. The residual activity [5] was 100%, the residual activity [6] was 98% and the inhibition [17] was 31%. The inhibition [18] was 6.67%, the inhibition [8] was 0.43% and the inhibition [19] was 6.96%. It also gave an inhibition [20] of -9.1%, an inhibition [21] of 17.9% and an inhibition [22] of 7.26%. For the same compound, the inhibition [23] was 12.8%, the IC50 [24] was 0.0078 µM (active) and the IC50 (Mogat2 (Mus musculus)) was 0.0024 µM (active).
